# Test results as given in patent US20130040882A1, “USE OF FIBROBLAST GROWTH FACTOR FRAGMENTS” (NOVARTIS AG, priority 2003, published 2013).
# “And” between values parts separate entries of the source, which are not always exact repeats. Equal entries are not always repeated.
# B1: FGF23CTP: unique 75-mer COOH-terminal peptide of FGF-23, SEQ ID NO: 2 (peptide, listed as Homo sapiens)
# chain: HTRSAEDDSERDPLNVLKPRARMTPAPASCSQELPSAEDNSPMASDPLGVVRGGRVNTHAGGTGPEGCRPFAKFI
# Columns and labels:
# [1] = Salmon calcitonin/PTS893 monkey study: in vivo examinations (mortality, food consumption, clinical observations, body weight); design: species or system cynomolgus monkeys (Macaca fascicularis); conditions: males
# Protocol: Solvent was used as vehicle for the control group.
# The animals used in this analysis were cynomolgus monkeys (Macaca fascicularis), supplied by Centre de Recherches Primatologiques, Port Louis, Mauritius. Two animals were used per group and sex. […] Animals were examined daily for mortality, food consumption and clinical observations. Body weight was recorded once per week.
# In vivo examinations. No significant histopathological changes were observed.
# [2] = Salmon calcitonin/PTS893 monkey study: urinalysis; conditions: urine
# [3] = Salmon calcitonin/PTS893 monkey study: haematology; assay type: in vivo, cynomolgus monkeys (Macaca fascicularis);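 further: haematology parameters were measured in blood collected from a peripheral vein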
# Protocol: Animals were fasted overnight before blood collection but had free access to water. Blood samples were taken from a peripheral vein. Standard haematology and clinical chemistry analysis were performed once during pretest and at the end of the treatment period. Blood samples were collected from each animal at the same intervals as described for the clinical chemistry investigations. The serum samples were deep-frozen (approximately −80° C.) until analyses for hormone determination.
# [4] = tested on: retinal neuronal layers
# Protocol: The total thickness of the outer nuclear layer, the inner nuclear layer and the ganglion cell layer is measured using a standardized magnification after paraffin embedding and hematoxylin and eosin (HE)-staining. Three sections of each eye are measured at three locations each. […] Sections are encoded for evaluation.
# [5] = tested on: Insulin-Like Growth Factor Binding Protein 2; assay: Serum determination of insulin-like growth factor binding protein 2 in FGF23CTP-treated monkeys; assay type: in vivo, cynomolgus monkey
# Protocol: At the end of the treatment period samples from all organs are subjected to snap freezing at necropsy and are analyzed with GeneChip® expression profiling.
# Serum levels were determined for IGFB2 and found to be decreased, in agreement with the decreased transcript levels in several organs, including the liver.
# [6] = female monkeys, day 13 of dosing
# [7] = female monkeys, day −7 relative to start of dosing
# [8] = female monkeys, day −8 relative to start of dosing
# [9] = male monkeys, day −5 relative to start of dosing
# [10] = male monkeys, day −6 relative to start of dosing
# [11] = right eye (FGF23CTP), average of all measurements of three animals, x200 magnification
molecule,measurement,setting,value
"Leu8, Asp10, Lysll, A1a16, G1n18, Thr33, A1a34 human PTH 1-34 [PTS893, Leu8, Asp10, Lysll, A1a16, G1n18, Thr33, A1a34 human PTH 1-34 [hPTH(1-34)]]","Food Consumption, Avg., Both animals",[1]; average of both animals of the group,89.6
same,"Food Consumption, Avg.",[1]; average per individual animal,87.5 and 91.7
same,"Food Consumption, Day 1","[1]; day 1 of SC dosing, individual animals",100
same,"Food Consumption, Day 2","[1]; day 2 of SC dosing, individual animals",100
same,"Food Consumption, Day 3","[1]; day 3 of SC dosing, individual animals",100
same,"Food Consumption, Day 4","[1]; day 4 of SC dosing, individual animals",100
same,"Food Consumption, Day 5","[1]; day 5 of SC dosing, individual animals",100
same,"Food Consumption, Day 6","[1]; day 6 of SC dosing, individual animals",100
same,"Food Consumption, Day 7","[1]; day 7 of SC dosing, individual animals",100
same,"Food Consumption, Day 8","[1]; day 8 of SC dosing, individual animals",100
same,"Food Consumption, Day 9","[1]; day 9 of SC dosing, individual animals",100
same,"Food Consumption, Day 10","[1]; day 10 of SC dosing, individual animals",100
same,"Food Consumption, Day 11","[1]; day 11 of SC dosing, individual animals",100
same,"Food Consumption, Day 12","[1]; day 12 of SC dosing, individual animals",100
same,"Food Consumption, Day 13","[1]; day 13 of SC dosing, individual animals",50 and 100
same,"Food Consumption, Day 14","[1]; day 14 of SC dosing, individual animals",75 and 100
same,"Food Consumption, Day −1","[1]; day −1 (before dosing), individual animals",100
same,"Food Consumption, Day −2","[1]; day −2 (before dosing), individual animals",75 and 100
same,"Food Consumption, Day −3","[1]; day −3 (before dosing), individual animals",100
same,"Food Consumption, Day −4","[1]; day −4 (before dosing), individual animals",100
same,"Food Consumption, Day −5","[1]; day −5 (before dosing), individual animals",100
same,"Food Consumption, Day −6","[1]; day −6 (before dosing), individual animals",50
same,CREAT,[2]; [6],5620 µmol/L and 8060 µmol/L
same,Ca2+,[2]; [6],20.05 mmol/L and 12.35 mmol/L
same,Cl−,[2]; [6],101 mmol/L and 133 mmol/L
same,D-PYR,[2]; [6],1356 nmol/L and 2036 nmol/L
same,LDH,[2]; [6],10.0 IU/L and 9.0 IU/L
same,Mg2+,[2]; [6],6.90 mmol/L and 5.90 mmol/L
same,NTx/Crea,[2]; [6],447 nME/mM and 705 nME/mM
same,Pyr/Crea,[2]; [6],241 nM/mM and 253 nM/mM
same,VOLUME,[2]; [6],52 mL and 42 mL
same,NTx/Crea,[2]; [7],576 nME/mM and 634 nME/mM
same,Pyr/Crea,[2]; [7],163 nM/mM and 181 nM/mM
same,CREAT,[2]; [8],19160 µmol/L and 14060 µmol/L
same,Ca2+,[2]; [8],11.50 mmol/L and 6.60 mmol/L
same,K+,[2]; [8],302 mmol/L and 164 mmol/L
same,LDH,[2]; [8],11.0 IU/L and 18.0 IU/L
same,Mg2+,[2]; [8],7.35 mmol/L and 4.00 mmol/L
same,Na+,[2]; [8],145 mmol/L and 118 mmol/L
same,Ca2+,"[2]; male monkeys, day 13 of dosing",7.55 mmol/L and 13.10 mmol/L
same,I.PHOS,"[2]; male monkeys, day 13 of dosing",0.10 mmol/L and 0.17 mmol/L
same,K+,"[2]; male monkeys, day 13 of dosing",107 mmol/L and 69 mmol/L
same,LDH,"[2]; male monkeys, day 13 of dosing",14.0 IU/L and 19.0 IU/L
same,Mg2+,"[2]; male monkeys, day 13 of dosing",8.70 mmol/L and 5.25 mmol/L
same,NAG,"[2]; male monkeys, day 13 of dosing",2.9 IU/l and 2.6 IU/l
same,NTx/Crea,"[2]; male monkeys, day 13 of dosing",621 nME/mM and 547 nME/mM
same,Pyr/Crea,"[2]; male monkeys, day 13 of dosing",214 nM/mM and 204 nM/mM
same,CREAT,[2]; [9],16160 µmol/L and 16120 µmol/L
same,CTx,[2]; [9],11865 µg/L and 20108 µg/L
same,D-PYR,[2]; [9],1660 nmol/L and 2278 nmol/L
same,NTx,[2]; [9],5403 nM BCE and 8757 nM BCE
same,NTx/Crea,[2]; [9],334 nME/mM and 543 nME/mM
same,Pyr/Crea,[2]; [9],103 nM/mM and 141 nM/mM
same,CREAT,[2]; [10],16160 µmol/L and 9940 µmol/L
same,Ca2+,[2]; [10],5.10 mmol/L and 3.50 mmol/L
same,K+,[2]; [10],86 mmol/L and 125 mmol/L
same,LDH,[2]; [10],7.0 IU/L and 9.0 IU/L
same,Haematology L,"[3]; females, d7",6.29 pg/ml and 5.87 pg/ml
same,Haematology M,"[3]; females, d7",0.44 nmol/l
same,Haematology MCH,"[3]; females, d7",18.9 ng/ml and 19.0 ng/ml
same,Haematology N,"[3]; females, d7",10.8 nmol/l and 5.49 nmol/l
same,Haematology PCV,"[3]; females, d7",0.41 mU/l and 0.43 mU/l
same,Haematology PLAT,"[3]; females, d7",525 nmol/l and 382 nmol/l
same,Haematology RBC,"[3]; females, d7",6.2 nmol/l and 6.4 nmol/l
same,Haematology E,"[3]; females, d13",0.21 mUI/l and 0.29 mUI/l
same,Haematology HB,"[3]; females, d13",11.3
same,Haematology L,"[3]; females, d13",5.81 pg/ml and 5.21 pg/ml
same,Haematology MCH,"[3]; females, d13",19.3 ng/ml and 19.2 ng/ml
same,Haematology MCHC,"[3]; females, d13",28.6 pg/ml and 29.2 pg/ml
same,Haematology N,"[3]; females, d13",6.36 nmol/l and 4.18 nmol/l
same,Haematology PCV,"[3]; females, d13",0.40 mU/l and 0.39 mU/l
same,Haematology PLAT,"[3]; females, d13",496 nmol/l and 309 nmol/l
same,Haematology RBC,"[3]; females, d13",5.9 nmol/l
same,Haematology L,"[3]; females, d−8 (before dosing)",3.92 pg/ml and 4.40 pg/ml
same,Haematology M,"[3]; females, d−8 (before dosing)",0.80 nmol/l and 0.54 nmol/l
same,Haematology MCH,"[3]; females, d−8 (before dosing)",19.3 ng/ml
same,Haematology MCHC,"[3]; females, d−8 (before dosing)",30.6 pg/ml and 30.2 pg/ml
same,Haematology N,"[3]; females, d−8 (before dosing)",5.34 nmol/l and 9.05 nmol/l
same,Haematology PCV,"[3]; females, d−8 (before dosing)",0.44 mU/l and 0.43 mU/l
same,Haematology RBC,"[3]; females, d−8 (before dosing)",6.9 nmol/l and 6.7 nmol/l
same,Haematology B,"[3]; males, d7",0.02 G/l and 0.03 G/l
same,Haematology HB,"[3]; males, d7",11.3 g/dl and 11.9 g/dl
same,Haematology L,"[3]; males, d7",5.91 G/l and 5.30 G/l
same,Haematology MCH,"[3]; males, d7",17.7 pg and 20.2 pg
same,Haematology MCHC,"[3]; males, d7",29.3 g/dl and 30.2 g/dl
same,Haematology MCV,"[3]; males, d7",60 fl and 67 fl
same,Haematology PCV,"[3]; males, d7",0.38 l/l and 0.40 l/l
same,Haematology PLAT,"[3]; males, d7",456 G/l and 589 G/l
same,Haematology RBC,"[3]; males, d7",6.4 T/l and 5.9 T/l
same,Haematology WBC,"[3]; males, d7",8.4 G/l and 15.0 G/l
same,Haematology B,"[3]; males, d13",0.04 G/l and 0.03 G/l
same,Haematology HB,"[3]; males, d13",11.7 g/dl and 11.8 g/dl
same,Haematology L,"[3]; males, d13",5.37 G/l and 4.86 G/l
same,Haematology M,"[3]; males, d13",0.27 G/l and 0.46 G/l
same,Haematology MCH,"[3]; males, d13",17.3 pg and 20.3 pg
same,Haematology MCHC,"[3]; males, d13",27.5 g/dl and 29.2 g/dl
same,Haematology MCV,"[3]; males, d13",63 fl and 70 fl
same,Haematology PCV,"[3]; males, d13",0.43 l/l and 0.41 l/l
same,Haematology PLAT,"[3]; males, d13",330 G/l and 452 G/l
same,Haematology RBC,"[3]; males, d13",6.8 T/l and 5.8 T/l
same,Haematology WBC,"[3]; males, d13",8.8 G/l and 11.9 G/l
same,Haematology HB,"[3]; males, d−6 (before dosing)",13.6 g/dl and 13.2 g/dl
same,Haematology L,"[3]; males, d−6 (before dosing)",5.07 G/l and 3.99 G/l
same,Haematology MCH,"[3]; males, d−6 (before dosing)",18.0 pg and 20.4 pg
same,Haematology MCHC,"[3]; males, d−6 (before dosing)",31.5 g/dl and 33.1 g/dl
same,Haematology MCV,"[3]; males, d−6 (before dosing)",57 fl and 62 fl
same,Haematology N,"[3]; males, d−6 (before dosing)",4.45 G/l and 4.80 G/l
same,Haematology PCV,"[3]; males, d−6 (before dosing)",0.43 l/l and 0.40 l/l
same,Haematology PLAT,"[3]; males, d−6 (before dosing)",325 G/l and 459 G/l
same,Haematology RBC,"[3]; males, d−6 (before dosing)",7.6 T/l and 6.5 T/l
same,Haematology WBC,"[3]; males, d−6 (before dosing)",10.4 G/l and 9.1 G/l
B1,"Thickness of the inner nuclear layer, outer nuclear layer, ganglion cell layer vs PBS",[4]; five days after injection,no marked difference
same,"Ganglion cell layer thickness, average",[4]; [11],2.25 mm
same,"Inner nuclear layer thickness, average",[4]; [11],6 mm
same,"Outer nuclear layer thickness, average",[4]; [11],10.63 mm
same,Neuronal damage in the eye,"[4]; three animals, five days after injection",not to induce any neuronal damage
same,"Serum Insulin-Like Growth Factor Binding Protein 2, mean",[5]; 100 μg/day,893 ng/mL
same,"Serum Insulin-Like Growth Factor Binding Protein 2, conc","[5]; individual animals, 100 μg/day",987.6 ng/mL and 596.7 ng/mL and 749.5 ng/mL and 1239.8 ng/mL
same,Serum protein levels of circulating IGF2-binding protein,"[5]; treated animals, two weeks sc",decreased
